This is an account of results in patent US7262340B2, “Gibberellin 2-oxidase” (Rothamsted Research Limited, priority 1998, dated 2007).

For assay [1], the system named is severely dwarfed 35S-PcGA2ox1 line. The experiment in a line: Metabolism of C19-GAs in a severely dwarfed 35S-PcGA2ox1 line compared with wild-type plants (HPLC). The assay is classed as in vivo, Arabidopsis. The following applies: severely dwarfed line versus wild-type, on the basis of HPLC. An excerpt: Metabolism of C19-Gas was compared in a severely dwarfed […] line with that in wild-type plants. […] Therefore, this GA can be used, when required, to reverse the GA-deficiency resulting from overexpressing GA 2-oxidase genes.

The target of a further assay is T1, AtGA2ox2 (Arabidopsis thaliana, UniProt Q9XFR9).
T1 construct: made in house; host or cells: E. coli (crude cell lysate)
T1 sequence (Q9XFR9 1-341): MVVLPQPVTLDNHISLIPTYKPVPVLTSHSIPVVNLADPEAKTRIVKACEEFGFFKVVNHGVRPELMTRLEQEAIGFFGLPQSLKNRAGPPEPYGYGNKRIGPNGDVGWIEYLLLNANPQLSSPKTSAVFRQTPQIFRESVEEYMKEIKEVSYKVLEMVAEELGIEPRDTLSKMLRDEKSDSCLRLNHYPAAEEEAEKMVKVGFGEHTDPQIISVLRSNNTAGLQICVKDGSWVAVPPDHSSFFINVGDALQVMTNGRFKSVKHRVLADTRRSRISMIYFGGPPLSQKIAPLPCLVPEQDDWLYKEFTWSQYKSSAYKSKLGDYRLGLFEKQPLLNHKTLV
As to the kind of experiment: Incubation of recombinant GA 2-oxidase AtGA2ox2 (E. coli lysate) with 14C-labelled GA substrates. The assay is classed as biochemical. Particulars: for 2β-Hydroxy GA product / GA-catabolite Product: E. coli cell lysate, 14C-labelled GA substrate and cofactors, 2.5 h, HPLC-radiomonitoring; for conversion of C20-GA substrate: 14C-labelled substrate, dioxygenase cofactors. Here is the method: (§1) GA 2β-hydroxylase activity was determined by measuring the release of 3H2O from a 2β tritiated GA substrate, as described by Smith and MacMillan (Smith, V. A., and MacMillan, J. in J. Plant Growth Regulation 2 251-264 (1984)). The bacterial lysate (90 μl) was incubated with [1,2-^3H2]GA4 or [2,3-^3H2]GA9 (ca. 50000 dpm), in the presence of 4 mM 2-oxoglutarate, 0.5 mM Fe(II)SO4, 4 MM ascorbate, 4 mM DTT, 1 mg/ml catalase, 2 mg/ml BSA, in a final reaction volume of 100 μl. The mixture was incubated at 30° C. for 60 min. The tritiated GAs were removed by the addition of 1 ml of activated charcoal (5% w/v) and subsequent centrifugation for 5 min in a microfuge. Aliquots (0.5 ml) of the supernatant were mixed with 2 ml scintillation fluid and the radioactivity determined by scintillation counting.
(§2) In order to confirm the function of the cDNA expression products, bacterial lysate was incubated with [17-^14C]GAs in the presence of cofactors, as described above. After the incubation, acetic acid (10 μl) and water at pH 3 (140 μl) were added, and the mixture was centrifuged at 3,000 rpm for 10 min. The supernatant was analysed by HPLC with on-line radiomonitoring and products identified by GC-MS, as described previously (MacMillan et al Plant Physiol. 113 1369-1377 (1997)).
(§3) The catalytic properties of the recombinant proteins obtained by expressing the cDNAs from P. coccineus (PcGA2ox1) and A. thaliana (AtGA2ox1, AtGA2ox2 and AtGa2ox3) in E. coli were examined by incubating in the presence of dioxygenase cofactors with a range of ^14C-labelled GA substrates, consisting of the C19-GAs GA1, GA4, GA9 and GA20, and the C20-GAs, GA12 and GA15. This last compound was incubated in both its closed and open lactone forms. […] The mass spectnum of the product from GA15 is consistent with it being 2β-hydroxyGA15, although, because the authentic compound is not available for comparison, the identity of this product is tentative.
(§4) Values are % yield by HPLC-radiomonitoring of products after incubation of cell lysates from E. coli expressing the cDNA with ^14C-labelled GA substrate and cofactors for 2.5 h. Products and substrate were separated by HPLC and products identified by GC-MS. Where combined yield of products <100%, the remainder is unconverted substrate.

Another assay has as its target T2, PcGA2ox1 (Phaseolus coccineus, UniProt Q9XG83).
T2 construct: unnamed vector-encoded fusion partner (phagemid expression); made in house; host or cells: E. coli (crude cell lysate)
T2 sequence (Q9XG83 1-331): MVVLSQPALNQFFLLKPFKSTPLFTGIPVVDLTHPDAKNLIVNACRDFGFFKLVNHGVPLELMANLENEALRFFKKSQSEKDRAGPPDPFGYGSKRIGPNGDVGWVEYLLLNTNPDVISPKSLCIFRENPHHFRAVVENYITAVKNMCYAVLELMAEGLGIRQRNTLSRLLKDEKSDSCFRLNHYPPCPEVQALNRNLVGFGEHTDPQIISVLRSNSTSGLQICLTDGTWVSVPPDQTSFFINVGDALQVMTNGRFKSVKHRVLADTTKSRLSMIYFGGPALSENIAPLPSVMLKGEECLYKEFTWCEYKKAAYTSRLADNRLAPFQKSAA
As to the kind of experiment: Incubation of recombinant GA 2-oxidase PcGA2ox1 (E. coli lysate) with 14C-labelled GA substrates. The following applies: for 2β-Hydroxy GA product / GA-catabolite Product: E. coli cell lysate, 14C-labelled GA substrate and cofactors, 2.5 h, HPLC-radiomonitoring; for conversion of C20-GA substrate: 14C-labelled substrate, dioxygenase cofactors. The assay is classed as biochemical. Here is the method: as §1, §2, §3, §4

A further assay has as its target T3, AtGA2ox3 (Arabidopsis thaliana, UniProt O64692).
T3 construct: made in house; host or cells: E. coli (crude cell lysate)
T3 sequence (O64692 1-335): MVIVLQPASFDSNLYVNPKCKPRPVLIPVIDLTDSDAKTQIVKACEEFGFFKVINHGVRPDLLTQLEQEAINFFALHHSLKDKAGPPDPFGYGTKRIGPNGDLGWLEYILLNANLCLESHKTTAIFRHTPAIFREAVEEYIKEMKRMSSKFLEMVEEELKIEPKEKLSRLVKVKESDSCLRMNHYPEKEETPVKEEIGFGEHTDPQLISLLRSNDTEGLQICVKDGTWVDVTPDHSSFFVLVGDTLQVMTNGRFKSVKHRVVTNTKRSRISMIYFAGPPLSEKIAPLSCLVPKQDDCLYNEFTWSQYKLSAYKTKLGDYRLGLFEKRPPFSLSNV
As to the kind of experiment: Incubation of recombinant GA 2-oxidase AtGA2ox3 (E. coli lysate) with 14C-labelled GA substrates. The assay is classed as biochemical. Particulars: for 2β-Hydroxy GA product / GA-catabolite Product: E. coli cell lysate, 14C-labelled GA substrate and cofactors, 2.5 h, HPLC-radiomonitoring. Here is the method:
as §1, §2, §3, §4

A further assay concerns the target T4, AtGA2ox1 (Arabidopsis thaliana, UniProt Q8LEA2).
T4 construct: made in house; host or cells: E. coli (crude cell lysate)
T4 sequence (Q8LEA2 1-329): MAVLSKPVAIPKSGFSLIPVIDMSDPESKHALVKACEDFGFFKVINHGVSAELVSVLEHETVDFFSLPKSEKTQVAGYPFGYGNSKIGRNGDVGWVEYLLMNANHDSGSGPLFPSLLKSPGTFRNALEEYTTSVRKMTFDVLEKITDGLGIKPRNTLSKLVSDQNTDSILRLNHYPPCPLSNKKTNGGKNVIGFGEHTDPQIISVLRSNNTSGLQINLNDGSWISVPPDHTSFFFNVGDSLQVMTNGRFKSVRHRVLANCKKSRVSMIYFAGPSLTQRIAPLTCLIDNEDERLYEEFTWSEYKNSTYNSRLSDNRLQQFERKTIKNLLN
As to the kind of experiment: Incubation of recombinant GA 2-oxidase AtGA2ox1 (E. coli lysate) with 14C-labelled GA substrates. Particulars: for 2β-Hydroxy GA product: E. coli cell lysate, 14C-labelled GA substrate and cofactors, 2.5 h, HPLC-radiomonitoring. It counts as biochemical. As for the experimental part: as §1, §2, §3, §4

For assay [2], the system named is T3 and T24 (AtGA2ox1 and AtGA2ox2) transcript. As to the kind of experiment: Northern blot of GA 2-oxidase genes T3 and T24 after GA3 treatment of GA-deficient mutant. It counts as in vivo, Arabidopsis. Particulars: immature flower buds and pedicels of GA-deficient mutant gal-2, after treatment.
Another assay has as its system GA 2-oxidases. As to the kind of experiment: Substrate test with recombinant enzyme (GA 2-oxidases, enzyme not specified). The assay is classed as biochemical.
In assay [3] the test system is 35S-PcGA2ox1 transgenic Arabidopsis lines. The experiment in a line: GA3 treatment of Arabidopsis transformants overexpressing P. coccineus GA 2-oxidase. The assay is classed as in vivo. As for the experimental part:
The transformation of Arabidopsis plants with P. coccineus GA 2-oxidase cDNA under the control of the CaMV ^35S promoter yielded the following results.
Five Arabidopsis lines that are homozygous for the 35S-PcGA2ox1 transgene were obtained. […] No flower buds were obtained when plants were grown in short photoperiods.

The subject of assay [4] is 2-oxoglutarate-dependent dioxygenases. The following applies: pea seeds; cited from earlier work.
The mark [5] stands for this setting: 14C-labelled substrate, dioxygenase cofactors.

Regarding `C=C1C[C@]23C[C@@]1(O)CC[C@H]2[C@@]12CC[C@H](O)[C@@](C)(C(=O)O1)[C@H]2[C@@H]3C(=O)O` [GA1], in [1], the “conversion to 2-oxidised products / metabolism by the dwarf line” value is “to a much greater extent than did the wild-type”. The “2β-Hydroxy GA product” value was 100 % yield at AtGA2ox2, 100 % yield on PcGA2ox1, 100 % yield at AtGA2ox3 and 41 % yield on AtGA2ox1. On AtGA2ox3, the “GA-catabolite Product” value is on record as “Trace”.

For `C=C1C[C@]23C[C@@]1(O)CC[C@H]2[C@@]12C=C[C@H](O)[C@@](C)(C(=O)O1)[C@H]2[C@@H]3C(=O)O` [GA3], in assay [1], the “conversion to 2-oxidised products / metabolism by the dwarf line” value is listed as “did not metabolise”. The “transcript abundance for both T3 and T24” value in assay [2] is reported as “increased”. In the assay on GA 2-oxidases, the “substrate for the GA 2-oxidases” value is reported as “not a substrate”. Moreover, the “effect on bolting and flowering of the transgenic lines” value in [3] (10 μM GA3, homozygous 35S-PcGA2ox1 lines) was “enabled them to bolt and produce normal flowers that set viable seed”. For the same molecule, the “response of dwarf transformants to treatment” value in assay [3] (Arabidopsis transformants, CaMV 35S promoter, concentration not given) was “increased stem elongation and normal flower development”.

Turning to `C=C1C[C@]23C[C@H]1CC[C@H]2[C@@]12CC[C@H](O)[C@@](C)(C(=O)O1)[C@H]2[C@@H]3C(=O)O` [GA4], in assay [1], the “conversion to 2-oxidised products / metabolism by the dwarf line” value is listed as “to a much greater extent than did the wild-type”. Further, the “2β-Hydroxy GA product” value amounted to 77 % yield on AtGA2ox2, 83 % yield at PcGA2ox1, 86 % yield on AtGA2ox3 and 25 % yield at AtGA2ox1. The “GA-catabolite Product” value worked out at 23 % yield on AtGA2ox2, 17 % yield at PcGA2ox1 and 14 % yield on AtGA2ox3.

Regarding `C=C1C[C@]23C[C@H]1CC[C@H]2[C@@]12CCC[C@@](C)(C(=O)O1)[C@H]2[C@@H]3C(=O)O` [GA9], the “conversion to 2-oxidised products / metabolism by the dwarf line” value in [1] was “to a much greater extent than did the wild-type”. Moreover, the “GA-catabolite Product” value on AtGA2ox2 came to 100 % yield; at PcGA2ox1, 13 % yield. Besides, the “activity for 2β-hydroxylation of GA9, dependence on pH” value on AtGA2ox2 (between pH 6.5 and 8) is on record as “varied little”; at PcGA2ox1 (between pH 6.5 and 8) it was “varied little”; at AtGA2ox3 (between pH 6.5 and 8) it was “varied little”. Also, the “2β-Hydroxy GA product” value was 87 % yield on PcGA2ox1, 100 % yield at AtGA2ox3 and 91 % yield on AtGA2ox1. For the same molecule, the “pH at which activity for 2β-hydroxylation of GA9 peaked” value at AtGA2ox1 came out at 7. Moreover, at AtGA2ox1 (pH ≦5.9 and ≧8.1), the “activity for 2β-hydroxylation of GA9” value is “no detectable activity”.

Take `C=C1C[C@]23C[C@H]1CC[C@H]2[C@]1(C)CCC[C@@](C)(C(=O)O)[C@H]1[C@@H]3C(=O)O` [GA12]: the “conversion of C20-GA substrate” value at AtGA2ox2, on PcGA2ox1, on AtGA2ox3 (setting [5]) and on AtGA2ox1 (setting [5]) was “No conversion” throughout.

For `C=C1C[C@]23C[C@H]1CC[C@H]2[C@]1(CO)CCC[C@@](C)(C(=O)O)[C@H]1[C@@H]3C(=O)O` [GA15 open lactone, 20-hydroxyGA12], the “conversion of C20-GA substrate” value on AtGA2ox2 was “converted to the same product by AtGAox2, but less efficiently than was the lactone form”; at PcGA2ox1, “no conversion”.

Consider `C=C1C[C@]23C[C@H]1CC[C@H]2[C@@]12CCC[C@@](C)(C(=O)OC1)[C@H]2[C@@H]3C(=O)O` [GA15], for which the “conversion of C20-GA substrate” value on AtGA2ox2 and at PcGA2ox1 was “converted to a single product” throughout.

In the case of `C=C1C[C@]23C[C@@]1(O)CC[C@H]2[C@@]12CCC[C@@](C)(C(=O)O1)[C@H]2[C@@H]3C(=O)O` [GA20], in assay [1], the “conversion to 2-oxidised products / metabolism by the dwarf line” value is “to a much greater extent than did the wild-type”. In addition, the “2β-Hydroxy GA product” value at AtGA2ox2 is listed as 100 % yield; on PcGA2ox1, 86 % yield; on AtGA2ox3, 25 % yield; on AtGA2ox1, 50 % yield.

For prohexadione-calcium, in assay [4], the “conversion of GA29 to GA29-catabolite” value was “inhibited”.
